How the values were obtained:
potassium arsenate = compound: O=[As]([O-])(O)O.[K+] [potassium arsenate]; test: thermal stability z-score vs DMSO; higher = more thermally stabilized by treatment; details: HeLa; arsenate concentration 1 mM
Experimental: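 Cellular thermal proteome profiling in HeLa cells treated with 1 mM arsenate for 1 h (DMSO pretreatment), heated to ten temperatures (37-66.3 °C). Soluble protein was quantified by TMT mass spectrometry relative to DMSO controls; the thermal stability score was transformed to a z-score; mean of n = 3 experiments.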

lipoamide = compound: NC(=O)CCCCC1CCSS1 [lipoamide]; test: as above; details: HeLa, lipoamide concentration 100 µM
Experimental: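 Cellular thermal proteome profiling in HeLa cells. Cells were treated with 100 µM lipoamide for 1 h, with or without 1 mM arsenate for a further 1 h, then heated to ten temperatures (37-66.3 °C), and soluble protein was quantified by TMT mass spectrometry relative to 0.1% DMSO controls. The thermal stability score (sum of log2 fold changes minus the abundance score) was transformed to a z-score; mean of n = 3 experiments.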

[1] = arsenate co-treatment: 1 mM arsenate 1 h
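Note: each temperature applied for 3 min, abundance score taken as mean log2 fold change at the two lowest temperatures, z-score obtained by mean subtraction and division by SD.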

UniProt O94776, sequence (O94776 whole entry): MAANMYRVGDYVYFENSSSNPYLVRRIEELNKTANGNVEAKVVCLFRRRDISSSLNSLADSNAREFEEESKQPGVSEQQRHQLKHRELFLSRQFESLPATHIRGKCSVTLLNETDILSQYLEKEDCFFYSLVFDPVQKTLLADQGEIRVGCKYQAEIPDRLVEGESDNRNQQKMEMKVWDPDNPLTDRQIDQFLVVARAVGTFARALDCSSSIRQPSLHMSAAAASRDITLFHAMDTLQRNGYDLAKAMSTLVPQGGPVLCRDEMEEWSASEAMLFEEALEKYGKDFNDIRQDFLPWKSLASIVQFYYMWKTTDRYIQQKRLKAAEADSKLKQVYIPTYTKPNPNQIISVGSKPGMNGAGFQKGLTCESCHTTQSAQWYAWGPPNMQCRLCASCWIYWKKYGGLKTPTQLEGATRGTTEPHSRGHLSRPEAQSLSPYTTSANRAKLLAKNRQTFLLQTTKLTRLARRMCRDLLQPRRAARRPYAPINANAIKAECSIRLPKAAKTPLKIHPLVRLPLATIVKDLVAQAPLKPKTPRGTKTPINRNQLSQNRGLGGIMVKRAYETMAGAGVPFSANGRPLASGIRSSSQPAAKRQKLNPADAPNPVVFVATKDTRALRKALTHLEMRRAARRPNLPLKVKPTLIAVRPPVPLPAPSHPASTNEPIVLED
UniProt Q9NZJ7, sequence (Q9NZJ7 whole entry): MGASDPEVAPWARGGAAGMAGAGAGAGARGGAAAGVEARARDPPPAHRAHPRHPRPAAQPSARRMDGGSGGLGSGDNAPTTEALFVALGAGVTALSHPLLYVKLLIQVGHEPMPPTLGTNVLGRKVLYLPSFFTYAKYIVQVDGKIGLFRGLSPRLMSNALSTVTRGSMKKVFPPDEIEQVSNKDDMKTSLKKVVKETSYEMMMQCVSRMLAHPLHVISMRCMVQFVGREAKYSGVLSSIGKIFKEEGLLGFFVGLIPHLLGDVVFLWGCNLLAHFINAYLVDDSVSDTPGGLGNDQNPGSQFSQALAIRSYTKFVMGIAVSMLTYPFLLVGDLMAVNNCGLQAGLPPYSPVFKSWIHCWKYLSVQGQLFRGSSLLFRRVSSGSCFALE
UniProt Q13126, sequence (Q13126 whole entry): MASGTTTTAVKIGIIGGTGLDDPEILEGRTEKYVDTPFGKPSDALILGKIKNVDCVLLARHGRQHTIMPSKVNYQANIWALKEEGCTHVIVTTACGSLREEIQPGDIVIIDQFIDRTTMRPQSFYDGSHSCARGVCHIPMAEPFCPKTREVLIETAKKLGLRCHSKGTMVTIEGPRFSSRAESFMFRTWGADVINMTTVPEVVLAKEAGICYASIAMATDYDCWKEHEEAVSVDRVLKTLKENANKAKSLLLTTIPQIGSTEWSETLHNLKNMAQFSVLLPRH
UniProt P11586, sequence (P11586 whole entry): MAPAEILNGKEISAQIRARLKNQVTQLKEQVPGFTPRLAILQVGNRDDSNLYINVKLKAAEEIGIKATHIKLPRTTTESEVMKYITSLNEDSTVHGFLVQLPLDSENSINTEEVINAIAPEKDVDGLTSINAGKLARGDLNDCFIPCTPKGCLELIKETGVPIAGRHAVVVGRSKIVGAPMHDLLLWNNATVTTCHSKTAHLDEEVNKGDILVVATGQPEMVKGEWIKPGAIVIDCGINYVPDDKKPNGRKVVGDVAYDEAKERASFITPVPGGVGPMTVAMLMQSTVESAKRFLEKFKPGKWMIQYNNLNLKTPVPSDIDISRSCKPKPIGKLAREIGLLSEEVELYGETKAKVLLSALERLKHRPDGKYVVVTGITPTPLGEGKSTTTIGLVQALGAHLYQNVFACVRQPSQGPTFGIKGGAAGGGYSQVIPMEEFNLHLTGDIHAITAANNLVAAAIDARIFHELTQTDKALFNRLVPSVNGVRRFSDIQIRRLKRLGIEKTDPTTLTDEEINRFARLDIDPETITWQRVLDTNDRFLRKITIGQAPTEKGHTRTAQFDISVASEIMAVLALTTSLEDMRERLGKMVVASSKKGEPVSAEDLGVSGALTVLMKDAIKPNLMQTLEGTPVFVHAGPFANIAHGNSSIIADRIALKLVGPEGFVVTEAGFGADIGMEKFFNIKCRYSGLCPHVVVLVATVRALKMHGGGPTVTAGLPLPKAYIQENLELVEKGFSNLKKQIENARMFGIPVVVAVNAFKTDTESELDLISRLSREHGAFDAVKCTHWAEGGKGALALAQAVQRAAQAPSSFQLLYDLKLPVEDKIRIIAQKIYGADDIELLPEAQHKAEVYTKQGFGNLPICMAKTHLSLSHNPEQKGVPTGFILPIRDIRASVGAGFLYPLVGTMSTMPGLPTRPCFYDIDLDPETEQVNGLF
UniProt Q96E11, sequence (Q96E11 whole entry): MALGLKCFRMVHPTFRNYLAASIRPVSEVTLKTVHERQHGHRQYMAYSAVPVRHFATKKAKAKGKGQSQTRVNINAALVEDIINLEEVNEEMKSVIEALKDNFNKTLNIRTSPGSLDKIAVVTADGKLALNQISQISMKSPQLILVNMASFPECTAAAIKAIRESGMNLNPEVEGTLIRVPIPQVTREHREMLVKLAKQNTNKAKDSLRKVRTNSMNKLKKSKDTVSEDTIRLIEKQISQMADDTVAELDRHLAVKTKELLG
UniProt P82909, sequence (P82909 whole entry): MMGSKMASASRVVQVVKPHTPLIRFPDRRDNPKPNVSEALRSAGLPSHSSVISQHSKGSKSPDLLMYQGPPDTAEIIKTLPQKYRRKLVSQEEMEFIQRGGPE
UniProt Q15800, sequence (Q15800 whole entry): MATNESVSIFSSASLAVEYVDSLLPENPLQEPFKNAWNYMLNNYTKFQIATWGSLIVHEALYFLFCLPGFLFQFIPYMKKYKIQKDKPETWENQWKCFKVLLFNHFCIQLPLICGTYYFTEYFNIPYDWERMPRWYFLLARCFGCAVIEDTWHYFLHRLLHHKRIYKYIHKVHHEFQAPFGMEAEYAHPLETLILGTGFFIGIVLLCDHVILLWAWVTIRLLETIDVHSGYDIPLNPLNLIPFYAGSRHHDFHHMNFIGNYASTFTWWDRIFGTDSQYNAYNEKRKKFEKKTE
UniProt Q13330, sequence (Q13330 whole entry): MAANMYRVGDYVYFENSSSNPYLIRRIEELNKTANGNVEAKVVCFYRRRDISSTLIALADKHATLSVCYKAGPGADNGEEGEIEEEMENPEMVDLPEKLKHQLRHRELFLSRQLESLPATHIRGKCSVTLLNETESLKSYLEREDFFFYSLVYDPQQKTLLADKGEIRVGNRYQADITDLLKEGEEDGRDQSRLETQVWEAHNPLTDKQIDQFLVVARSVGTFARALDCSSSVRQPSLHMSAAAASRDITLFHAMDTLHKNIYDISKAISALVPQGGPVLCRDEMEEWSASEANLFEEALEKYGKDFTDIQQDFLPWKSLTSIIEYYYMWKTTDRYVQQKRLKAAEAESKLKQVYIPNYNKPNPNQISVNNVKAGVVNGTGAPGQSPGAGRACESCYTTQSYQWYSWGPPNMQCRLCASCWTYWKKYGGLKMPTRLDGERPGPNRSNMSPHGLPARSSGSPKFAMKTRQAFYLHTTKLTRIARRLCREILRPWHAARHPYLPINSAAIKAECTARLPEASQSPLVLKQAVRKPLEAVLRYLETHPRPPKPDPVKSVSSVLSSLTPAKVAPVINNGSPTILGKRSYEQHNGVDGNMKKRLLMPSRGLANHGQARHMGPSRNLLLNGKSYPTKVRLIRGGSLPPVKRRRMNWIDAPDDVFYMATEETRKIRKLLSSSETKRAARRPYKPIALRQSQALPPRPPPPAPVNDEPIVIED
UniProt P13995, sequence (P13995 whole entry): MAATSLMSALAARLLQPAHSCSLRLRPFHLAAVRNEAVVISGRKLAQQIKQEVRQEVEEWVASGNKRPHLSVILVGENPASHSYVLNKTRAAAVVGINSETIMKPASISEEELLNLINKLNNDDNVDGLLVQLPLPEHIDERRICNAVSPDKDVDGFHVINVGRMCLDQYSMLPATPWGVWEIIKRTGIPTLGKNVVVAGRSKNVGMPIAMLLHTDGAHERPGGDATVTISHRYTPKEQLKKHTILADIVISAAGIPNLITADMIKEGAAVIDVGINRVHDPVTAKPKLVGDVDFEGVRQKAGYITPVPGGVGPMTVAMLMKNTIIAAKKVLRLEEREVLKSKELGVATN
UniProt Q9BUK6, sequence (Q9BUK6 whole entry): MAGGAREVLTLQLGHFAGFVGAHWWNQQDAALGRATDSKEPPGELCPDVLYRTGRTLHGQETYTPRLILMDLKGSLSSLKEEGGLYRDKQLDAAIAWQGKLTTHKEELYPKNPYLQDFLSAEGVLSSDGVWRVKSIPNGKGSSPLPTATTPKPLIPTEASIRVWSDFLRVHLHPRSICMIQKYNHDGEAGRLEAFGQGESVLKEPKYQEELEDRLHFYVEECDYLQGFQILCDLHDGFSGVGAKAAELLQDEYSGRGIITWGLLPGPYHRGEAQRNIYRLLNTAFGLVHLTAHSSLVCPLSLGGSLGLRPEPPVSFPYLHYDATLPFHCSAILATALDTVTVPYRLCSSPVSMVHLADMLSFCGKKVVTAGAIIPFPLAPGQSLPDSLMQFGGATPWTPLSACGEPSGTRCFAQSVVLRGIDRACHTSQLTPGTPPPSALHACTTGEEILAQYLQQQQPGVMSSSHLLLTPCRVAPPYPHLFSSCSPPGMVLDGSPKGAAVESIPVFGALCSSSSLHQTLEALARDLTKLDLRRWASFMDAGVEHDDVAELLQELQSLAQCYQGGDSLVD
UniProt Q7Z6M4, sequence (Q7Z6M4 whole entry): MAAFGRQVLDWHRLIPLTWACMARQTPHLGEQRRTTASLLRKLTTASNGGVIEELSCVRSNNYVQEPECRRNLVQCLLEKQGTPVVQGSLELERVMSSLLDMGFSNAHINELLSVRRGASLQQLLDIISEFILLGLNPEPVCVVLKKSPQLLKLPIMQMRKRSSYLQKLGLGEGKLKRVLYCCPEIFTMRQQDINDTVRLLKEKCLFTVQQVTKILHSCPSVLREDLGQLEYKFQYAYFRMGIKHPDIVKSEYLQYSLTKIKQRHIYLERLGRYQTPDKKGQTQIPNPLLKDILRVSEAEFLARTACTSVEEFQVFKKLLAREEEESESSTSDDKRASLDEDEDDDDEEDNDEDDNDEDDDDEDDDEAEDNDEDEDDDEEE

Target | thermal stability z-score (potassium arsenate) | thermal stability z-score (lipoamide; [1]) | thermal stability z-score (lipoamide; arsenate co-treatment: none)
MRPS10 (UniProt P82664) | -0.309 | -0.41 | -0.358
MRPS11 (UniProt P82912) | 0.34 | 0.302 | -0.354
MRPS12 (UniProt O15235) | 0.233 | -0.367 | 0.0698
MRPS14 (UniProt O60783) | -0.644 | -0.722 | -0.574
MRPS15 (UniProt P82914) | 0.555 | 0.673 | 0.571
MRPS16 (UniProt Q9Y3D3) | 0.0354 | -0.314 | -0.201
MRPS18A (UniProt Q9NVS2) | 0.196 | -0.573 | -0.402
MRPS18B (UniProt Q9Y676) | 0.102 | 0.319 | 0.013
MRPS21 (UniProt P82921) | 1.03 | -0.28 | -0.78
MRPS22 (UniProt P82650) | -0.109 | -0.329 | 0.295
MRPS23 (UniProt Q9Y3D9) | 0.342 | -0.268 | 0.352
MRPS24 (UniProt Q96EL2) | -0.497 | -0.239 | -0.0199
MRPS25 (UniProt P82663) | 0.445 | 0.0295 | 0.0583
MRPS26 (UniProt Q9BYN8) | 0.123 | 0.609 | 0.375
MRPS27 (UniProt Q92552) | 0.189 | -0.204 | -0.193
MRPS28 (UniProt Q9Y2Q9) | -0.842 | 0.366 | 0.352
MRPS30 (UniProt Q9NP92) | -0.147 | -0.185 | -0.539
MRPS31 (UniProt Q92665) | -0.0848 | -0.961 | 0.411
MRPS33 (UniProt Q9Y291) | 0.00906 | 0.0616 | 0.0342
MRPS34 (UniProt P82930) | 0.427 | -0.835 | -0.044
MRPS35 (UniProt P82673) | -0.0913 | -0.663 | -0.362
MRPS36 (UniProt P82909) | 0.55 | 0.32 | 0.0105
MRRF (UniProt Q96E11) | 0.97 | 0.298 | 0.823
MRS2 (UniProt Q9HD23) | -1.27 | 0.937 | -0.861
MRTO4 (UniProt Q9UKD2) | 0.036 | 0.246 | 0.308
MSH2 (UniProt P43246) | -0.565 | -0.271 | -0.178
MSH3 (UniProt P20585) | -0.95 | -0.0133 | 0.43
MSH6 (UniProt P52701) | -0.142 | 0.0377 | 0.218

Target | thermal stability z-score (potassium arsenate) | thermal stability z-score (lipoamide; [1]) | thermal stability z-score (lipoamide; arsenate co-treatment: none)
MSI2 (UniProt Q96DH6) | 0.082 | 0.43 | 0.136
MSLN (UniProt Q13421) | -2.44 | -0.583 | -0.696
MSMO1 (UniProt Q15800) | 0.343 | -1.28 | -1.47
MSN (UniProt P26038) | -0.891 | 0.727 | 0.377
MSRB3 (UniProt Q8IXL7) | 0.269 | 0.866 | 0.887
MST1R (UniProt Q04912) | -0.0232 | -0.0878 | 0.0193
MSTO1 (UniProt Q9BUK6) | -0.742 | 0.101 | -0.0527
MT (UniProt Q8IVS2) | -0.404 | -0.281 | -0.555
MTA1 (UniProt Q13330) | -1.05 | 0.06 | 0.414
MTA2 (UniProt O94776) | -0.245 | 0.669 | 0.591
MTA3 (UniProt Q9BTC8) | -0.13 | 0.106 | 0.129
MTAP (UniProt Q13126) | -1.77 | 0.145 | -1.41
MTCH1 (UniProt Q9NZJ7) | 0.404 | -0.143 | -0.0871
MTCH2 (UniProt Q9Y6C9) | 0.688 | -0.0451 | 0.12
MTCL1 (UniProt Q9Y4B5) | -1.54 | -0.242 | 0.0775
MTDH (UniProt Q86UE4) | -1.35 | -0.531 | -0.503
MTERF3 (UniProt Q96E29) | 0.564 | -0.371 | 0.034
MTERF4 (UniProt Q7Z6M4) | -0.0404 | -0.0828 | 0.0195
MTFR1 (UniProt Q15390) | 0.165 | -0.301 | 0.52
MTG1 (UniProt Q9BT17) | 0.195 | 0.0673 | 0.0916
MTG2 (UniProt Q9H4K7) | 0.127 | -0.0209 | 0.00401
MTHFD1 (UniProt P11586) | -0.927 | 0.565 | 0.406
MTHFD1L (UniProt Q6UB35) | -0.123 | -0.786 | -0.399
MTHFD2 (UniProt P13995) | 0.474 | -1.43 | 0.0012
MTHFS (UniProt P49914) | -0.488 | -0.574 | 0.036
MTIF2 (UniProt P46199) | -0.789 | -0.77 | -1.59
MTIF3 (UniProt Q9H2K0) | 0.55 | 0.621 | 0.197

Source: the supplement of paper PMC12463676, “Small-molecule dissolution of stress granules by redox modulation benefits ALS models” (Nature Chemical Biology, 2025)
